Measured values: US20040121947A1, “Compounds which inhibit beta-secretase activity and methods of use thereof” (Oklahoma Medical Research Foundation, priority 2000, published 2004)
Each block holds one compound with its values, some of them ahead of it. *1 amine or outer side, *2 acyl side, *3 side chain or, on linkers, in order; H or OH if unused. Where a SMILES comes first, the peptide text is derived from it. [ ]: non-standard residue; d: D form. The star is where a group is joined. LeuΨ(S-CHOHCH2)Ala = CC(C)C[C@H](N[*:1])[C@@H](O)C[C@@H](C)C(=O)[*:2]; 5FAM = O=C1OC2(c3ccc(O)cc3Oc3cc(O)ccc32)c2ccc(C(=O)*)cc21; Ahx = NCCCCCC(=O)O

Assays:
[1] = Martin et al. 1999; cited from earlier work
[2] = tested on: plasma Aβ40; experiment: Inhibition of Aβ production in transgenic mice (plasma Aβ40 ELISA); type: in vivo, tg2576 mice; conditions: for Effect on plasma Aβ40: i.p. injection, 2 hours following injection
Method: Six-month-old tg2576 mice (n=21) were injected intraperitoneally (i.p.) 200 μg of conjugate CPI-3 or with control DMSO, in 200 μl of PBS. Plasma were collected from anesthetized animals by orbital bleed or sephaneous vein into heparinized capillary tubes and clarified by centrifugation. Plasma Aβ 1-40 levels were determined by capture ELISA (BioSource International, Camarillo, Calif.). The peptide analogue of CPI-3, with an amide group instead of the hydroxyethylene isostere was synthesized by SynPep (Camarillo, Calif.).
Since the conjugate inhibitors can cross the blood brain barrier in vivo, enter cells both in vitro and in vivo, and inhibit Aβ production in vitro, inhibition of Aβ production in vivo was determined. Tg2576 mice, expressing the Swedish mutation of the human amyloid precursor protein (including SEQ ID NO: 11) (Hsiao, K., et al., Science 274:99-102 (1996), the teachings of which are incorporated hereby in their entirety) were injected with CPI-3, which is identical in amino acid sequence to CPI-2 and lacks the amino-terminal fluorescein (FAM) derivative. Blood was collected from tg2576 animals at time intervals following injection of 400 μg of CPI-3.
At ages up to 9 months, plasma Aβ in the tg2576 mice serves as a reliable marker for brain Aβ production as a result of memapsin 2 activity (Kawarabayashi, T., et al., J Neurosci. 21:372-381 (2001)). Nine tg2576 mice were injected intraperitoneally with various doses of inhibitor CPI-3.

[3] = tested on: plasma Aβ40; experiment: Inhibition of Aβ production in transgenic mouse model of Alzheimer's disease (plasma Aβ40 ELISA); type: in vivo, APP/F mice
Method: Compounds MMI-138, MMI-165, and MMI-185 were synthesized as described above. Compounds were dissolved in 1 ml of dimethyl sulfoxide (DMSO) to a final concentration of about 1 mg/ml for MMI-165 and MMI-185, and about 10 mg/ml for MMI-138. […] Inhibitors were diluted into PBS or H2O immediately prior to injection, as described below. Inhibition constants were determined by methods described by Ermolieff, et al. (Biochem. 39:12450-12456 (2000), the teachings of which are incorporated hereby in their entirety).
The tg2576 strain of mice was obtained from Taconic (Germantown, N.Y.). The APP/F strain of mice were obtained by mating the tg2576 mice with the FVB/N strain. To determine presence of the Swedish APP gene in APP/F mice, the DNA from mice was isolated according to the Qiagen Dneasy™ Tissue Kit. PCR (Qiagen kit and protocol) was used to amplify the fragment of DNA corresponding to the human Swedish APP gene. The following primers were used: […]
At the age of three months, animals of the Alzheimer's disease mouse model APP/F were injected intraperitoneally (i.p.) with about 163 nanomoles of either compounds MMI-138 (molecular weight 674 g/mole; 110 μg per animal, n=2), MMI-165 (molecular weight 626 g/mole; 102 μg per animal, n=2), or MMI-185 (molecular weight 686; 112 μg per animal, n=2).
Heparinized capillary tubes collected blood samples from anesthetized animals from either the retro-orbital sinus or from the saphenous vein at specified intervals following injection. The blood samples were transferred to sterile 1.5 mL microcentrifuge tubes, centrifuged at 5,100 RPM for 10 minutes to recover the plasma (supernatant), and stored at −70° C. until analysis for the Aβ40 by Enzyme Linked-Immuno-Sorbent Assay (ELISA).
A sandwich ELISA (BioSource International, Camarillo, Calif.) was used to determine the levels of Aβ40 in plasma samples. The ELISA utilizes a primary antibody specific for human Aβ for the immobilization of the amino-terminus and a detection antibody specific for the carboxy-terminal amino acids of Aβ40. A conjugated secondary antibody was used to detect the ternary complex, using a stabilized chromogen substrate, quantifiable following addition of 1 M HCl, with the optical densities measured at 450 nm. The procedures were followed according to the BioSource protocol. Optical densities were converted to pg/ml quantities of Aβ40 using a linear regression of the optical densities of standards obtained from the commercial kit, to their known concentrations.

[4] = tested on: HEK293 cells; experiment: Penetration of fluorescently labelled inhibitors into cultured cells (flow cytometry); type: cell-based, human; conditions: incubation 10 to 30 minutes
Method: Fluorescently labelled inhibitors or fluorescein (Fs) as a control were incubated with suspended cells for time intervals ranging from 10 to 30 minutes. Cells were fixed with paraformaldehyde and permeabilized in 0.2% Tween-20 in PBS for 6 minutes and incubated with anti-fluorescein-Alexa™ 488 antibody (Molecular Probes, Eugene, Oreg.) in order to enhance detection of intracellular inhibitor present from penetration. Flow cytometry (FACSCalibur™) and confocal fluorescent microscopy (Leica TCS NT™) were performed at the Flow and Image Cytometry Lab, OUHSC.

[5] = Transport of conjugated inhibitors to mouse blood, spleen and brain after i.p. injection
Method: Whole blood cells (with EDTA as anti-coagulant in the syringe or in the capillary tube) were isolated from anesthetized animals from the orbital artery or by heart puncture and diluted 1:10 in PBS. Prior to the harvest of other tissue samples, animals were anesthetized and perfused with 150 ml of neutral-buffered 10% formalin. Spleens were harvested intact. Brains were harvested and cerebral hemispheres separated, one for sectioning by cryostat, the other for single cell isolation for flow cytometry.
Sections of the brain hemispheres were obtained by soaking in OCT/PBS at 4° C. for overnight, recovered and frozen in Histo Prep Media.
To collect single cell suspensions, spleens and brain hemispheres were homogenized through a 30 μm screen and directly analyzed by flow cytometric analysis.

[6] = biological target: T1, memapsin 2 (Homo sapiens, UniProt P56817); experiment: Inhibition of memapsin 2 proteolytic activity, fluorogenic substrate FS-2; type: biochemical; conditions: memapsin 2, carrier peptide-inhibitor conjugates; read-out: Ki apparent
T1 construct: pET-11 vector-derived residues 1-15 of promemapsin 2-T1 (N, cleaved yes); made in house; host or cells: E. coli
T1 sequence (P56817 41-454 limits assumed): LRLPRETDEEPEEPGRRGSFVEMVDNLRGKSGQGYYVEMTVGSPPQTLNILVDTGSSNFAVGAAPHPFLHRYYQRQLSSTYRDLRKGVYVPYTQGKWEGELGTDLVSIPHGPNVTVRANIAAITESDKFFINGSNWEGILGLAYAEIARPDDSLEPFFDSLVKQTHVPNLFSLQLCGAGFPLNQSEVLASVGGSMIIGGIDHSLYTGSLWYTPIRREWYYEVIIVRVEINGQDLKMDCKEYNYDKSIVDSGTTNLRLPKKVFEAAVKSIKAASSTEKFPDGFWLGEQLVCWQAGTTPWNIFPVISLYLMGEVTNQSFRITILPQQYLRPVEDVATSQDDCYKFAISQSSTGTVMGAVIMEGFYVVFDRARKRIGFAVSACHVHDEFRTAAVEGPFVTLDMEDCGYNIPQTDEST
In short: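 Inhibitors tested at about 10 nM to 10 μM in pH 4.0 0.1 M sodium acetate containing 10% (v/v) DMSO, after 20 min preincubation at 37 °C with 80 nM self-activated memapsin 2. Substrate-independent Ki derived from apparent Ki via Km and substrate level.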

[7] = four injections at 2 hour intervals

SMILES: CC(C)(C)NC(=O)[C@@H]1CN(Cc2cccnc2)CCN1C[C@@H](O)C[C@@H](Cc1ccccc1)C(=O)N[C@H]1c2ccccc2C[C@H]1O [indinavir]
Crossing of the blood-brain barrier [1]: can cross the blood-brain barrier

SMILES: CC(C)C[C@H](NC(=O)[C@@H](N)CCC(=O)O)C(=O)N[C@@H](CC(=O)O)C(=O)N[C@@H](CC(C)C)[C@@H](O)C[C@@H](C)C(=O)N[C@H](C(=O)N[C@@H](CCC(=O)O)C(=O)N[C@@H](Cc1ccccc1)C(=O)O)C(C)C [OM00-3, ELDL*AVEF] (H-ELD[LeuΨ(S-CHOHCH2)Ala]VEF-OH)
Effect on plasma Aβ40 [2]: did not reduce plasma Aβ40 levels
Decrease in plasma Aβ40 ([3]; 2 hours following injection of 163 nmoles): 16%
Inhibition of Aβ40 production in vivo ([3]; plasma Aβ40): failed to inhibit Aβ40 production

Ki [6]: 58 nM
SMILES: CC(C)C[C@H](NC(=O)[C@H](CCC(=O)O)NC(=O)CCCCCNC(=O)c1ccc2c(c1)C(=O)OC21c2ccc(O)cc2Oc2cc(O)ccc21)C(=O)N[C@@H](CC(=O)O)C(=O)N[C@@H](CC(C)C)[C@@H](O)C[C@@H](C)C(=O)N[C@H](C(=O)N[C@@H](CCC(=O)O)C(=O)N[C@@H](Cc1ccccc1)C(=O)NCC(=O)NCC(=O)N[C@H](CCCNC(=N)N)C(=O)N[C@H](CCCNC(=N)N)C(=O)N[C@H](CCCNC(=N)N)C(=O)N[C@H](CCCNC(=N)N)C(=O)N[C@H](CCCNC(=N)N)C(=O)N[C@H](CCCNC(=N)N)C(=O)N[C@H](CCCNC(=N)N)C(=O)N[C@H](CCCNC(=N)N)C(=O)N[C@H](CCCNC(=N)N)C(=O)O)C(C)C [CPI-2] ({5FAM-Ahx}-ELD[LeuΨ(S-CHOHCH2)Ala]VEFGG[dR][dR][dR][dR][dR][dR][dR][dR][dR]-OH)
Penetration of cultured cells (intracellular fluorescence) [4]: readily penetrated cultured cells within minutes
Splenocytes with fluorescence peak shift ([5]; mouse, in vivo, ip): ~100%

SMILES: CC(C)C[C@H](NC(=O)[C@H](CC(N)=O)NC(=O)[C@@H](NC(=O)[C@H](CCC(=O)O)NC(=O)CCCCCNC(=O)c1ccc2c(c1)C(=O)OC21c2ccc(O)cc2Oc2cc(O)ccc21)C(C)C)[C@@H](O)C[C@@H](C)C(=O)N[C@@H](C)C(=O)N[C@@H](CCC(=O)O)C(=O)N[C@@H](Cc1ccccc1)C(=O)NCC(=O)N[C@@H](Cc1ccc(O)cc1)C(=O)NCC(=O)N[C@@H](CCCNC(=N)N)C(=O)N[C@@H](CCCCN)C(=O)N[C@@H](CCCCN)C(=O)N[C@@H](CCCNC(=N)N)C(=O)N[C@@H](CCCNC(=N)N)C(=O)N[C@@H](CCC(N)=O)C(=O)N[C@@H](CCCNC(=N)N)C(=O)N[C@@H](CCCNC(=N)N)C(=O)N[C@@H](CCCNC(=N)N)C(=O)O [CPI-1] ({5FAM-Ahx}-EVN[LeuΨ(S-CHOHCH2)Ala]AEFGYGRKKRRQRRR-OH)
Penetration of cultured cells (intracellular fluorescence) [4]: readily penetrated cultured cells within minutes
Uptake into brain tissue ([5]; 8 hours after i.p. injection, flow cytometry or confocal microscopy): penetration of the fluorescent conjugate into all brain cells
Splenocytes with fluorescence peak shift ([5]; splenectomy 2 hours after i.p. injection): ~100%
Blood cells with strong fluorescence signal ([5]; whole blood 20 minutes after i.p. injection, 0.3 nmol): approximately 100%
Ki [6]: 39 nM

SMILES: CC(C)C[C@H](NC(=O)[C@@H](N)CCC(=O)O)C(=O)N[C@@H](CC(=O)O)C(=O)N[C@@H](CC(C)C)[C@@H](O)C[C@@H](C)C(=O)N[C@H](C(=O)N[C@@H](CCC(=O)O)C(=O)N[C@@H](Cc1ccccc1)C(=O)NCC(=O)NCC(=O)N[C@H](CCCNC(=N)N)C(=O)N[C@H](CCCNC(=N)N)C(=O)N[C@H](CCCNC(=N)N)C(=O)N[C@H](CCCNC(=N)N)C(=O)N[C@H](CCCNC(=N)N)C(=O)N[C@H](CCCNC(=N)N)C(=O)N[C@H](CCCNC(=N)N)C(=O)N[C@H](CCCNC(=N)N)C(=O)N[C@H](CCCNC(=N)N)C(=O)O)C(C)C [CPI-3] (H-ELD[LeuΨ(S-CHOHCH2)Ala]VEFGG[dR][dR][dR][dR][dR][dR][dR][dR][dR]-OH)
Plasma Aβ40 level relative to initial value ([2]; 2 hours following i.p. injection): about one third
Aβ level, average low, % of the average initial value [2, 7]: 29%
Inhibition of plasma Aβ [2, 7]: about 80%
Effect on plasma Aβ40 [2]: significant dose-dependent reduction
Half-life of inhibition of plasma Aβ40 ([2]; single i.p. injection): 3 h
Time of return of plasma Aβ40 level to the initial value ([2]; single i.p. injection): ≤ 8 h
